Measurements as given in patent US10166271B2, “Methods for promoting hair growth” (THE REGENTS OF THE UNIVERSITY OF CALIFORNIA, priority 2006, dated 2019).
Values joined by “and” are separate entries in the source; they are usually repeats but may differ in a detail not shown here. Identical values can stand only once.

Experiments:
Format in all cases: in vivo
CRF-OE mice [1] = assay: Hair growth and skin pigmentation after ip injection in adult alopecic CRF-OE mice (Example 2); parameters: key to Back Hair Growth Score (BK) / Ventral Abdomen Hair Growth Score (VAb): hair growth score 0-10: 0 = no change in hair, 10 = full hair growth; key to Skin pigmentation (Pg) score: pigment score 0-10: 0 = bright pink skin, 10 = fully black; details: for Back Hair Growth Score (BK) / Skin pigmentation (Pg) score / Ventral Abdomen Hair Growth Score (VAb): adult male CRF-OE mice, individual mice and Ave.
Procedure: Hair growth in CRF-OE mice was assessed using the hair growth scale developed by Vegesna et al. […], 2002) modified to account for phenotypic differences between CRF-OE mice. Scores were made visually as well as using photographs of each mouse at a weekly interval. The degree of alopecia varied between individual CRF-OE mice; thus, the percent difference between the amount of hair present in the test area (described below) before and 4 weeks after treatment was converted to a score of 0-10. A zero score corresponded to a no change in the amount of hair in the test area and a score of 10 corresponded to full hair growth in the entire test area. The scale for monitoring hair growth in CRF-OE mice is more particularly described in Table 2.
Pigmentation of the skin (also referred to as skin color) in the test region was also measured because, in C57BL/6 mice, the skin darkens at the onset of hair growth. A pigmentation score from 0-10 was given to each mouse with a score of 0 corresponding to bright pink skin color/pigment in the entire test region, a score of 1-5 corresponding to increasing intensity of a pale greyish color/pigment of skin in the test region, a score of 6-9 corresponding to increasing but non-confluent darker color/pigment of skin in the test region, and a score of 10 corresponding to black pigmentation of the entire test region. Pigmentation was measured one week after the fifth and final injection because changes (if any) in pigmentation are substantially complete by that time.
CRF-OE mice (approximately 4 months old) with fully developed alopecia on their backs were injected intraperitoneally (ip) with equal volumes (0.1 ml) of either saline or astressin B (5 μg/mouse/day) for 5 consecutive days. Skin pigment score and hair growth (on the back) score were determined as described in Example 1. In addition, because adult CRF-OE mice also lose ventral abdomen hair, a ventral abdomen (Vab) hair growth score was determined. The area considered for scoring ventral abdomen hair growth was delineated, in the front (anteriorly), by a horizontal line across the tip of the xifoid process (distal sternum), in the rear (posteriorly), by a horizontal line joining the back of the thighs along the anus, and, laterally, by a straight line along the lateral side of the ventral abdomen on left and right sides.

CRF-OE mice [2] = assay: Subcutaneous implanted mini-pump in CRF-OE mice, hair growth; details: 10 μg/mouse/day for 7 days, implanted mini-pump sc; CRF-OE male and female mice 5-7 months old
Description: Eight (8) out of 9 (89%) female mice responded to injected (sc) astressin B with increased pigmentation and hair growth. The remaining […] female mice were observed qualitatively. Similarly, 4 out of 4 (100%) of the male mice responded to astressin B with increased pigmentation and hair growth. In contrast, none of the astressin 2B-injected mice (0%) grew significant amounts of hair.

CRF-OE mice [3] = assay: Cyclic CRF antagonists, hair growth in adult alopecic CRF-OE mice (Example 10); details: at least four weeks after the final administration
Description: Although mice are particularly described, one skilled in the art will appreciate that other laboratory animals and human subjects can be used, and doses adjusted accordingly (for example based on the weight of the subject, or the area to which the peptide is to be applied). Similarly although particular modes of administration are described, one will appreciate that variations can be made (such as those disclosed herein and those known in the art).
Any method of administration can be used, including injection, transdermal/topical delivery, or combinations thereof.
In one example, therapeutic peptides are administered via injection. For example, mice can be injected subcutaneously or intraperitoneally with at least 0.05 μg, at least 0.5 μg, at least 5 μg, at least 50 μg, or at least 500 μg of one or more therapeutic peptides (for example 0.5-50 μg peptide, 0.5-10 μg peptide, or 5 μg peptide). The peptide can be administered in 0.1 ml sterile saline (or 5% mannitol) once per day for at least 5 consecutive days, such as at least 10 days, at least 30 days, or at least 60 days. […] As a negative control, CRF-OE mice receive saline alone (such as 10-100 μl) or 5 μg astressin 2B in 0.1 ml saline.
In another example, therapeutic peptides are administered topically or transdermally. […]

[4] = ip 5 μg/mouse/day x 5 days, CRF-OE mice
[5] = ip 5 μg/mouse/day x 5 days, Before (Week 0), listed as AB
[6] = ip 5 μg/mouse/day x 5 days, Before (Week 0), listed as AB, mean
[7] = ip 5 μg/mouse/day x 5 days, Week 1, listed as AB
[8] = ip 5 μg/mouse/day x 5 days, Week 1, listed as AB, mean
[9] = ip 5 μg/mouse/day x 5 days, Week 8, listed as AB
[10] = ip 5 μg/mouse/day x 5 days, Week 8, listed as AB, mean

(cyclo 30-33)[DPhe12, Nle21,38, Cml27,40, Glu30, Lys33]Ac-h/rCRF9-41 [Astressin B]
Onset of dark skin pigment after the final injection (CRF-OE mice [1]; [4]): ≤ 3 days
Time of darkest skin color / maximal pigment response after the final injection (CRF-OE mice [1]; [4]): 7 to 10 days
Re-grown hair maintained / retained after the final ip injection (CRF-OE mice [1]; ip 5 μg/mouse/day x 5 days, CRF-OE mice, listed as astressin B): ≥ 8 weeks
Re-grown hair maintained / retained after the final ip injection (CRF-OE mice [1]; ip 5 μg/mouse/day x 5 days, CRF-OE mice, listed as astressin-B): 8 weeks
Back Hair Growth Score (BK) (CRF-OE mice [1]; [5]): 2 and 1 (3×)
Skin pigmentation (Pg) score (CRF-OE mice [1]; [5]): 0.0
Ventral Abdomen Hair Growth Score (VAb) (CRF-OE mice [1]; [5]): 5 (3×) and 2.5
Back Hair Growth Score (BK) (CRF-OE mice [1]; [6]): 1.25
Skin pigmentation (Pg) score (CRF-OE mice [1]; [6]): 0
Ventral Abdomen Hair Growth Score (VAb) (CRF-OE mice [1]; [6]): 4.4
Skin pigmentation (Pg) score (CRF-OE mice [1]; ip 5 μg/mouse/day x 5 days, Week 1): 10
Back Hair Growth Score (BK) (CRF-OE mice [1]; [7]): 9.5 and 10 and 9 (2×)
Ventral Abdomen Hair Growth Score (VAb) (CRF-OE mice [1]; [7]): 10 (2×) and 8 (2×)
Back Hair Growth Score (BK) (CRF-OE mice [1]; [8]): 9.4
Ventral Abdomen Hair Growth Score (VAb) (CRF-OE mice [1]; [8]): 9
Ventral Abdomen Hair Growth Score (VAb) (CRF-OE mice [1]; ip 5 μg/mouse/day x 5 days, Week 4): 10
Back Hair Growth Score (BK) (CRF-OE mice [1]; ip 5 μg/mouse/day x 5 days, Week 4, listed as AB): 10 (3×) and 9.5
Back Hair Growth Score (BK) (CRF-OE mice [1]; ip 5 μg/mouse/day x 5 days, Week 4, listed as AB, mean): 9.9
Ventral Abdomen Hair Growth Score (VAb) (CRF-OE mice [1]; ip 5 μg/mouse/day x 5 days, Week 4, mean): 10
Back Hair Growth Score (BK) (CRF-OE mice [1]; [9]): 10 and 9.5 and 8.5 and 8
Ventral Abdomen Hair Growth Score (VAb) (CRF-OE mice [1]; [9]): 10 (2×) and 8 (2×)
Back Hair Growth Score (BK) (CRF-OE mice [1]; [10]): 9
Ventral Abdomen Hair Growth Score (VAb) (CRF-OE mice [1]; [10]): 9
Hair coverage (CRF-OE mice [1]; ip 5 μg/mouse/day x 5 days, at 2 weeks, four-month old male CRF-OE mice): 95-100%
Re-grown hair largely maintained after the last ip injection (CRF-OE mice [1]; ip 5 μg/mouse/day x 5 days, four-month old male CRF-OE mice): up to 16 weeks
Hair growth score (fully grown hair) (CRF-OE mice [1]; ip, four and seven weeks after the final injection, all mice): 9-10
Mice with dark skin (CRF-OE mice [1]; ip, one week after the final injection, fraction of mice): 4/4

cyclo(31-34)[DPhe11, His12, CαMeLeu13,39, Nle17, Glu31, Lys34]Ac-Sau(8-40) [Astressin 2B, reference compound]
Hair growth for 1 month post treatment (CRF-OE mice [2]): no hair growth was observed
Hair in the test area (CRF-OE mice [3]): remain bald in the test area
